# Results: ChEMBL document CHEMBL1146102, “Synthesis and structure-activity relationship of 3,4'-bispyridinylethylenes: discovery of a potent 3-isoquinolinylpyridine inhibitor of protein kinase B (PKB/Akt) for the treatment of cancer” (Bioorg Med Chem Lett, 2006)
# How the values were obtained:
# [1] = target: T1, RAC-alpha serine/threonine-protein kinase (Homo sapiens, UniProt P31749); assay: Inhibition of Akt1 at 50 uM
# [2] = target: T2, Serine/threonine-protein kinase Chk1 (Homo sapiens, UniProt O14757); assay: Inhibition of Chk1 at 10 uM ATP
# T2 sequence (O14757 whole entry): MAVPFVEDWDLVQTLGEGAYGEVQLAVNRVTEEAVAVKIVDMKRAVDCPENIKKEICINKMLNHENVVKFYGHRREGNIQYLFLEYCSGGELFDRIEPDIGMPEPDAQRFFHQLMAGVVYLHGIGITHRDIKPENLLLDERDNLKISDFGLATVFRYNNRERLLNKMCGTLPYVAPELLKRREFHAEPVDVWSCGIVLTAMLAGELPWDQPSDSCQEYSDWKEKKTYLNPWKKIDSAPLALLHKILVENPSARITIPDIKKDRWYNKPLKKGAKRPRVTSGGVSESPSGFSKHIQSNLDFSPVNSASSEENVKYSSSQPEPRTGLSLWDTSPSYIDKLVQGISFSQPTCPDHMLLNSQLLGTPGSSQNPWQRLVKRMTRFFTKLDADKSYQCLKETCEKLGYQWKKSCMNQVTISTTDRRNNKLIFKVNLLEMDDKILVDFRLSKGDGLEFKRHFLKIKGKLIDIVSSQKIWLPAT
# [3] = target: T1, RAC-alpha serine/threonine-protein kinase; assay: Activity against GSK3 phosphorylation in FL5.12-Akt1 cells; format: functional, cell-based
# [4] = target: Proto-oncogene tyrosine-protein kinase Src (Homo sapiens, UniProt P12931); assay: Inhibition of SRC kinase at 1.0 mM ATP
# [5] = target: MAP kinase-activated protein kinase 2 (Homo sapiens, UniProt P49137); assay: Inhibition of MAPKAP2 at 10 uM ATP
# [6] = target: Cyclin-dependent kinase 1 (Homo sapiens, UniProt P06493); assay: Inhibition of CDK1 at 10 uM ATP
# [7] = target: RAC-gamma serine/threonine-protein kinase (Homo sapiens, UniProt Q9Y243); assay: Inhibition of Akt3 at 10 uM ATP
# [8] = target: Mitogen-activated protein kinase 1 (Homo sapiens, UniProt P28482); assay: Inhibition of ERK2 at 10 uM ATP
# Casein kinase II = Casein kinase II (Homo sapiens, UniProt P19784+P67870+P68400); assay: Inhibition of CK2 at 10 uM ATP; format: protein-complex assay
# [9] = target: Protein kinase C delta type (Homo sapiens, UniProt Q05655); assay: Inhibition of PKCdelta at 10 uM ATP
# [10] = target: Protein kinase C gamma type (Homo sapiens, UniProt P05129); assay: Inhibition of PKCgamma at 10 uM ATP
# [11] = target: Vascular endothelial growth factor receptor 3 (Homo sapiens, UniProt P35916); assay: Inhibition of FLt4 at 1.0 mM ATP
# Chain of Vascular endothelial growth factor receptor 3 (P35916 whole entry): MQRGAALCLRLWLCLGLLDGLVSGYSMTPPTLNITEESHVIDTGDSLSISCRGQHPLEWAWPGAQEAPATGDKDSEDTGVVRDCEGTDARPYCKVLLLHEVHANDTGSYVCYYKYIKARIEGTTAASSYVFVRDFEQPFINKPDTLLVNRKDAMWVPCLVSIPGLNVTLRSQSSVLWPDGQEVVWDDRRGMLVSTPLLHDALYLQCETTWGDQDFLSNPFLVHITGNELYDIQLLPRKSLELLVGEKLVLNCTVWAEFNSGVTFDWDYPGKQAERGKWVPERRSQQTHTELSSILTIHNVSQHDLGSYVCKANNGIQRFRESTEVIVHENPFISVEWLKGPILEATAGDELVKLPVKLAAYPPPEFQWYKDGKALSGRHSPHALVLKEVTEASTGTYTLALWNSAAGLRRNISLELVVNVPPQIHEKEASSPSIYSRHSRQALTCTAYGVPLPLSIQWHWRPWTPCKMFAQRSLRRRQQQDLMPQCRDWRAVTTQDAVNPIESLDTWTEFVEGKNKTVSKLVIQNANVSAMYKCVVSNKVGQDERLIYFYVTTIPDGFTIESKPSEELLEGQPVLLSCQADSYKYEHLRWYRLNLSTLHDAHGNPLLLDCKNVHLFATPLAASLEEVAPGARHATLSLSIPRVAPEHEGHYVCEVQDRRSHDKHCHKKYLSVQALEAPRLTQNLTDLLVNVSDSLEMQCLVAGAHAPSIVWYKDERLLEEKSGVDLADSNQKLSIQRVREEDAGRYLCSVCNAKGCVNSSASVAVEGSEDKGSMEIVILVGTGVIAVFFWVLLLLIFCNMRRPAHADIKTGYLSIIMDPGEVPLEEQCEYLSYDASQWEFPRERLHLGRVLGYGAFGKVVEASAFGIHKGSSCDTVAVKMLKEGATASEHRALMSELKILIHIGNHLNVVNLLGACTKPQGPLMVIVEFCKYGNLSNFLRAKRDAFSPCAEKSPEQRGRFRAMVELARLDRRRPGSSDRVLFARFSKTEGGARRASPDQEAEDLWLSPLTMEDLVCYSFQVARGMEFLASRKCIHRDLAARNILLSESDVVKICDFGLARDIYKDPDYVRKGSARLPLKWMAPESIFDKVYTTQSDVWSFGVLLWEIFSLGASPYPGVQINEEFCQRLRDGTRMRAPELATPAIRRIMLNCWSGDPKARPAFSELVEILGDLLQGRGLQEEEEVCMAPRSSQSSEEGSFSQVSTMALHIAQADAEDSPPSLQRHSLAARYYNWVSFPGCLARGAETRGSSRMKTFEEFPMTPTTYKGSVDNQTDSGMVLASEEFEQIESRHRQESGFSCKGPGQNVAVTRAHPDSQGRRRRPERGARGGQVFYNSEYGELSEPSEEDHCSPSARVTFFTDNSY
# T1 sequence (P31749 whole entry): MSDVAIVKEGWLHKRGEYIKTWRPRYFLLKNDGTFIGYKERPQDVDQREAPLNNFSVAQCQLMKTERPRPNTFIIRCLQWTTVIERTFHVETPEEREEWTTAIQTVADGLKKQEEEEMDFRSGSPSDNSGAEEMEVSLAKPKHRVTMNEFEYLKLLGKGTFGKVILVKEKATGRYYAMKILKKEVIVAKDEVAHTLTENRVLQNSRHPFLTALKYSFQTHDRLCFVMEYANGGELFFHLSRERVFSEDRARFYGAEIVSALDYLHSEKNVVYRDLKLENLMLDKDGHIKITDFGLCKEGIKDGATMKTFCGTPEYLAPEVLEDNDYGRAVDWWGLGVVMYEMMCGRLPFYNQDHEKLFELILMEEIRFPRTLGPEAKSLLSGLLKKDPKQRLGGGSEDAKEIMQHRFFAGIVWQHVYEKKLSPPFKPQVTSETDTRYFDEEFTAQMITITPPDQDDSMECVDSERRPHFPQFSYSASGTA
# Chain of Cyclin-dependent kinase 1 (P06493 whole entry): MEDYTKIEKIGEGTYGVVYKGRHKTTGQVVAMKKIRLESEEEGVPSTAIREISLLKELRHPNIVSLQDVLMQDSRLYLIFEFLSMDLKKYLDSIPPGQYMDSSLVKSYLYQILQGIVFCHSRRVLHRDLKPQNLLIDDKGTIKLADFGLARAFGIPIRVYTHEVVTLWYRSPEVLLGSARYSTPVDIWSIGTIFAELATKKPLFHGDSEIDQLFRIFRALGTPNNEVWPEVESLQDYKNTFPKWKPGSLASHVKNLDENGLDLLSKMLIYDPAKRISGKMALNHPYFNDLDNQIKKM
# Chain of RAC-gamma serine/threonine-protein kinase (Q9Y243 whole entry): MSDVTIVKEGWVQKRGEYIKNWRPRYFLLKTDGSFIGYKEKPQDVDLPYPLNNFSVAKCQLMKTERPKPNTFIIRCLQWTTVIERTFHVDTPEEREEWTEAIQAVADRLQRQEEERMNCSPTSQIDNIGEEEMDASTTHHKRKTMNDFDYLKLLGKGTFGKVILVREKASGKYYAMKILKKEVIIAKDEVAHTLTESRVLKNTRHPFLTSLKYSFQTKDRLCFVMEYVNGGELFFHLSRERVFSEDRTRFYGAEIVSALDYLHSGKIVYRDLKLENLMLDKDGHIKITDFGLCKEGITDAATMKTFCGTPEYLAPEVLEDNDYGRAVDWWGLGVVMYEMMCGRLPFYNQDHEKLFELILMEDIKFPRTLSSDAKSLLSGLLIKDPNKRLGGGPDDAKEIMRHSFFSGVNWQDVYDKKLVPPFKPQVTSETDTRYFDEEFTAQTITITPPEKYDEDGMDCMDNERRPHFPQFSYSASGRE
# Chain of Protein kinase C delta type (Q05655 whole entry): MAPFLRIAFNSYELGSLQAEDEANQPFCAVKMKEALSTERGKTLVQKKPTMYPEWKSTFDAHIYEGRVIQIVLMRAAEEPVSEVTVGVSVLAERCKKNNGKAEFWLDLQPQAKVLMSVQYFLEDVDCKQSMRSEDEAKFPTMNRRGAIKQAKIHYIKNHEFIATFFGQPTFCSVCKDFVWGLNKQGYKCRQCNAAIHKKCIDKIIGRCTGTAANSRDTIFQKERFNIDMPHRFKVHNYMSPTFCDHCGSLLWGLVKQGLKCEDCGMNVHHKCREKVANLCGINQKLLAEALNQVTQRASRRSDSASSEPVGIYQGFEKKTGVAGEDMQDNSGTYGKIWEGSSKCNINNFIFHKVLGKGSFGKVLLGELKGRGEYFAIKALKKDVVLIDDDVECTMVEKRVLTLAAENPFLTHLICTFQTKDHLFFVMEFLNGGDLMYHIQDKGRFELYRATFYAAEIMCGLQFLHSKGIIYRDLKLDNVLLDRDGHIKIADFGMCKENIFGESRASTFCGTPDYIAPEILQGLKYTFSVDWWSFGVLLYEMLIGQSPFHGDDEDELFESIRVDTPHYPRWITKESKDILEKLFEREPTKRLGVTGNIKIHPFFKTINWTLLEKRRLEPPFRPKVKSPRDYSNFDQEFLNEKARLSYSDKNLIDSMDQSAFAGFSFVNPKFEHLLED
# Chain of Mitogen-activated protein kinase 1 (P28482 whole entry): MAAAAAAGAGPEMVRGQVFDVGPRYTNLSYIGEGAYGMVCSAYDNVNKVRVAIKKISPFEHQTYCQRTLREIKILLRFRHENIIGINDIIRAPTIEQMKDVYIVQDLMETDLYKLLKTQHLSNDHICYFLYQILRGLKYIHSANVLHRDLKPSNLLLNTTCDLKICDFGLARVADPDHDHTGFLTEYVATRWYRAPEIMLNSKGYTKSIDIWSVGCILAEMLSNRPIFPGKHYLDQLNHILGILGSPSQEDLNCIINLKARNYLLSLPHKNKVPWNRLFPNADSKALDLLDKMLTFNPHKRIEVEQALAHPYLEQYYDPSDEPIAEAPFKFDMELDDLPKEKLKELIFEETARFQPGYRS
# Chain of Proto-oncogene tyrosine-protein kinase Src (P12931 2-536 limits assumed): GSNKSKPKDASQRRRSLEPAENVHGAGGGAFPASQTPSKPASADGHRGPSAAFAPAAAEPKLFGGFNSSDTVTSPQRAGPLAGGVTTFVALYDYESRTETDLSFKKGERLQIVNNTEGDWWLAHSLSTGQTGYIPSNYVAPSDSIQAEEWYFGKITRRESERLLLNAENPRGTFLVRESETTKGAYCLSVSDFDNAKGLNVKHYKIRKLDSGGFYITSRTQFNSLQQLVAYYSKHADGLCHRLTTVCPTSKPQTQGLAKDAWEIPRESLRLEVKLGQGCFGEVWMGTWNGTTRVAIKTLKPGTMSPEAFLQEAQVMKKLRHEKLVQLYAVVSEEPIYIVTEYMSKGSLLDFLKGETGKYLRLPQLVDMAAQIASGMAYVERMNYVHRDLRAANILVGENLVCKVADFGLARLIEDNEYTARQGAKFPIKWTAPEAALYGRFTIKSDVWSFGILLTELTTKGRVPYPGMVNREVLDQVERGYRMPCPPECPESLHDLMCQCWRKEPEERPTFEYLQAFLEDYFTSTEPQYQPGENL
smiles,measurement,setting,value
N[C@H](COc1cncc(-c2ccccc2-c2ccncc2)c1)Cc1c[nH]c2ccccc12,inhibition,[1],10%
N[C@H](COc1cncc(-c2cccc(S(N)(=O)=O)c2)c1)Cc1c[nH]c2ccccc12,inhibition,[1],0%
N[C@H](COc1cncc(-c2ccc(S(N)(=O)=O)cc2)c1)Cc1c[nH]c2ccccc12,inhibition,[1],12%
CC(=O)NCc1ccc(-c2cncc(OC[C@@H](N)Cc3c[nH]c4ccccc34)c2)cc1,inhibition,[1],3%
N[C@H](COc1cncc(-c2ccc3cnccc3c2)c1)Cc1c[nH]c2ccccc12,IC50,[2],4200 nM
same,EC50,[3],1500 nM
same,IC50,[4],> 50000 nM
same,IC50,[5],> 50000 nM
same,IC50,[6],100 nM
same,IC50,[7],35 nM
same,IC50,[8],910 nM
same,IC50,Casein kinase II,11800 nM
same,IC50,[9],6100 nM
same,IC50,[10],270 nM
same,IC50,[11],> 50000 nM
N[C@H](COc1cncc(-c2ccc([N+](=O)[O-])cc2)c1)Cc1c[nH]c2ccccc12,inhibition,[1],13%
N[C@H](COc1cncc(NCc2ccncc2)c1)Cc1ccccc1,inhibition,[1],26%
N[C@H](COc1cncc(NC(=O)c2cccnc2)c1)Cc1ccccc1,inhibition,[1],26%
N[C@H](COc1cncc(NCc2cccnc2)c1)Cc1ccccc1,inhibition,[1],41%
N=C(NO)c1ccc(-c2cncc(OC[C@@H](N)Cc3c[nH]c4ccccc34)c2)cc1,inhibition,[1],48%
N=C(N)c1ccc(-c2cncc(OC[C@@H](N)Cc3c[nH]c4ccccc34)c2)cc1,inhibition,[1],41%
